Publication PMC10838953

Tests used:
CK2α′ = CK2α′ (Homo sapiens, UniProt P19784); conditions: 36 ng recombinant catalytic subunits
[1] = molecular target: ABL1(F317I)-phosphorylated (Homo sapiens, UniProt P00519, F317I); assay: biochemical; conditions: read-out: %Ctrl @ 2000nM
[2] = molecular target: ABL1(F317L)-nonphosphorylated (Homo sapiens, UniProt P00519, F317L); assay: biochemical; conditions: read-out: %Ctrl @ 2000nM
[3] = molecular target: ABL1(H396P)-nonphosphorylated (Homo sapiens, UniProt P00519, H396P); assay: biochemical; conditions: read-out: %Ctrl @ 2000nM
ACVR1B = ACVR1B (Homo sapiens, UniProt P36896); assay: biochemical; conditions: read-out: %Ctrl @ 2000nM
AKT2 = AKT2 (Homo sapiens, UniProt P31751); assay: biochemical; conditions: read-out: %Ctrl @ 2000nM
AMPK-alpha1 = AMPK-alpha1 (Homo sapiens, UniProt Q13131); assay: biochemical; conditions: read-out: %Ctrl @ 2000nM
BRSK1 = BRSK1 (Homo sapiens, UniProt Q8TDC3); assay: biochemical; conditions: read-out: %Ctrl @ 2000nM
CAMK1G = CAMK1G (Homo sapiens, UniProt Q96NX5); assay: biochemical; conditions: read-out: %Ctrl @ 2000nM
CAMK2B = CAMK2B (Homo sapiens, UniProt Q13554); assay: biochemical; conditions: read-out: %Ctrl @ 2000nM
CAMK4 = CAMK4 (Homo sapiens, UniProt Q16566); assay: biochemical; conditions: read-out: %Ctrl @ 2000nM
CHEK2 = CHEK2 (Homo sapiens, UniProt O96017); assay: biochemical; conditions: read-out: %Ctrl @ 2000nM
DAPK1 = DAPK1 (Homo sapiens, UniProt P53355); assay: biochemical; conditions: read-out: %Ctrl @ 2000nM
FLT3(D835V) = FLT3(D835V) (Homo sapiens, UniProt P36888, D835V); assay: biochemical; conditions: read-out: %Ctrl @ 2000nM
FYN = FYN (Homo sapiens, UniProt P06241); assay: biochemical; conditions: read-out: %Ctrl @ 2000nM
GAK = GAK (Homo sapiens, UniProt O14976); assay: biochemical; conditions: read-out: %Ctrl @ 2000nM
HUNK = HUNK (Homo sapiens, UniProt P57058); assay: biochemical; conditions: read-out: %Ctrl @ 2000nM
KIT(L576P) = KIT(L576P) (Homo sapiens, UniProt P10721, L576P); assay: biochemical; conditions: read-out: %Ctrl @ 2000nM
KIT(V559D,V654A) = KIT(V559D,V654A) (Homo sapiens, UniProt P10721, V559D/V654A); assay: biochemical; conditions: read-out: %Ctrl @ 2000nM
KIT-autoinhibited = KIT-autoinhibited (Homo sapiens, UniProt P10721); assay: biochemical; conditions: read-out: %Ctrl @ 2000nM
MAP3K1 = MAP3K1 (Homo sapiens, UniProt Q13233); assay: biochemical; conditions: read-out: %Ctrl @ 2000nM
MAP4K2 = MAP4K2 (Homo sapiens, UniProt Q12851); assay: biochemical; conditions: read-out: %Ctrl @ 2000nM
MARK1 = MARK1 (Homo sapiens, UniProt Q9P0L2); assay: biochemical; conditions: read-out: %Ctrl @ 2000nM
MST4 = MST4 (Homo sapiens, UniProt Q9P289); assay: biochemical; conditions: read-out: %Ctrl @ 2000nM
MYLK2 = MYLK2 (Homo sapiens, UniProt Q9H1R3); assay: biochemical; conditions: read-out: %Ctrl @ 2000nM
MYO3B = MYO3B (Homo sapiens, UniProt Q8WXR4); assay: biochemical; conditions: read-out: %Ctrl @ 2000nM
NEK4 = NEK4 (Homo sapiens, UniProt P51957); assay: biochemical; conditions: read-out: %Ctrl @ 2000nM
p38-beta = p38-beta (Homo sapiens, UniProt Q15759); assay: biochemical; conditions: read-out: %Ctrl @ 2000nM
PAK4 = PAK4 (Homo sapiens, UniProt O96013); assay: biochemical; conditions: read-out: %Ctrl @ 2000nM
PFTAIRE2 = PFTAIRE2 (Homo sapiens, UniProt Q96Q40); assay: biochemical; conditions: read-out: %Ctrl @ 2000nM
PIK3C2G = PIK3C2G (Homo sapiens, UniProt O75747); assay: biochemical; conditions: read-out: %Ctrl @ 2000nM
PIK3CA(H1047L) = PIK3CA(H1047L) (Homo sapiens, UniProt P42336, H1047L); assay: biochemical; conditions: read-out: %Ctrl @ 2000nM
PIK3CA(M1043I) = PIK3CA(M1043I) (Homo sapiens, UniProt P42336, M1043I); assay: biochemical; conditions: read-out: %Ctrl @ 2000nM
PRKCE = PRKCE (Homo sapiens, UniProt Q02156); assay: biochemical; conditions: read-out: %Ctrl @ 2000nM
QSK = QSK (Homo sapiens, UniProt Q9Y2K2); assay: biochemical; conditions: read-out: %Ctrl @ 2000nM
SIK = SIK (Homo sapiens, UniProt P57059); assay: biochemical; conditions: read-out: %Ctrl @ 2000nM
SLK = SLK (Homo sapiens, UniProt Q9H2G2); assay: biochemical; conditions: read-out: %Ctrl @ 2000nM
SRPK2 = SRPK2 (Homo sapiens, UniProt P78362); assay: biochemical; conditions: read-out: %Ctrl @ 2000nM
[4] = molecular target: TYK2(JH1domain-catalytic) (Homo sapiens, UniProt P29597); assay: biochemical; conditions: read-out: %Ctrl @ 2000nM
ULK3 = ULK3 (Homo sapiens, UniProt Q6PHR2); assay: biochemical; conditions: read-out: %Ctrl @ 2000nM
VPS34 = VPS34 (Homo sapiens, UniProt Q8NEB9); assay: biochemical; conditions: read-out: %Ctrl @ 2000nM
WEE2 = WEE2 (Homo sapiens, UniProt P0C1S8); assay: biochemical; conditions: read-out: %Ctrl @ 2000nM

Sequence of MYO3B (Q8WXR4 whole entry): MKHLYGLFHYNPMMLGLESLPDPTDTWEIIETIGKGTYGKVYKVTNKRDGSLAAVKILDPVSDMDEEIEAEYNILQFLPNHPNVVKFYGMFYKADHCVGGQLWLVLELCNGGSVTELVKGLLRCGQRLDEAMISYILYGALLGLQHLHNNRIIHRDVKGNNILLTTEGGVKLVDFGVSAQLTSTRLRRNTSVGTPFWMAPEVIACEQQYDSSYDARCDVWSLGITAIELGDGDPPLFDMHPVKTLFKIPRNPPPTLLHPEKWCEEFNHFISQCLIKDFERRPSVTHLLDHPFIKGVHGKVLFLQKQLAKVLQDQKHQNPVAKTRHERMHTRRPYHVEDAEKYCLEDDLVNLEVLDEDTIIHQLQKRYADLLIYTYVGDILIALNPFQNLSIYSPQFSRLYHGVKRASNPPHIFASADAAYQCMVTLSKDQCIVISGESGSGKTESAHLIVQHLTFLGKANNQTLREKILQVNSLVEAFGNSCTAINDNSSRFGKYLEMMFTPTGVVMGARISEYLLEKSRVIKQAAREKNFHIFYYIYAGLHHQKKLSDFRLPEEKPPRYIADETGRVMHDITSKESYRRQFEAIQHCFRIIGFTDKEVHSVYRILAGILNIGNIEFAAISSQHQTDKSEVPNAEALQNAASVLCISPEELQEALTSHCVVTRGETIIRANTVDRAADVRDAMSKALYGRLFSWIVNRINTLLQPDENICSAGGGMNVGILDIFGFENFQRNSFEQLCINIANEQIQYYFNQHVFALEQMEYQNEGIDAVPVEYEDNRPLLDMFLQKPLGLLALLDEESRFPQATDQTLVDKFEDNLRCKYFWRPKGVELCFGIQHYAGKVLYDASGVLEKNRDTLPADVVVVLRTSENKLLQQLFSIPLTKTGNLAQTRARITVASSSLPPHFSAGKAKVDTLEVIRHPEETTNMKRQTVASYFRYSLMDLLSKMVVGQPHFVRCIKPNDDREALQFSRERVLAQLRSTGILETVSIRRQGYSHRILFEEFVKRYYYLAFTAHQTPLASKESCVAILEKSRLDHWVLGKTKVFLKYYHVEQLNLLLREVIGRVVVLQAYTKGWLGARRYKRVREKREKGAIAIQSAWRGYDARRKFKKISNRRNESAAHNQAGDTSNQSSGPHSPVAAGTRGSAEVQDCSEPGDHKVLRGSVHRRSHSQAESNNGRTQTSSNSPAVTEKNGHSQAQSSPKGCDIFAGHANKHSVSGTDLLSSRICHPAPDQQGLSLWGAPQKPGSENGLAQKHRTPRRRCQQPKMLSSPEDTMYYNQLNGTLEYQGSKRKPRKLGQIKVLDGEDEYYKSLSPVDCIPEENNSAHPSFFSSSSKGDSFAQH
Sequence of CHEK2 (O96017 whole entry): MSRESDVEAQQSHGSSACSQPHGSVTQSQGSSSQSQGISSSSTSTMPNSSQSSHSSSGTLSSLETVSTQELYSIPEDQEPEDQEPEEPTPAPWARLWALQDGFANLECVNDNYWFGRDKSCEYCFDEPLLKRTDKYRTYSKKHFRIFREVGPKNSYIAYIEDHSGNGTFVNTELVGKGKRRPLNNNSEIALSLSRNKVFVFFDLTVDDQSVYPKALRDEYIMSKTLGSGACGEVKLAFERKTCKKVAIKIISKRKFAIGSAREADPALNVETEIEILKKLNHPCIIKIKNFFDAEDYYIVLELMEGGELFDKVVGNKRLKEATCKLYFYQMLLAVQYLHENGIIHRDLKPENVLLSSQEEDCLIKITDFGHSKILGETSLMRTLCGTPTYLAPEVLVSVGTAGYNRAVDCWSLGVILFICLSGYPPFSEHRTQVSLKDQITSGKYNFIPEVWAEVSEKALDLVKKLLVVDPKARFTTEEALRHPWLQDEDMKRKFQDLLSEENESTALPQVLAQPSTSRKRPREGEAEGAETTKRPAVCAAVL
Sequence of PRKCE (Q02156 whole entry): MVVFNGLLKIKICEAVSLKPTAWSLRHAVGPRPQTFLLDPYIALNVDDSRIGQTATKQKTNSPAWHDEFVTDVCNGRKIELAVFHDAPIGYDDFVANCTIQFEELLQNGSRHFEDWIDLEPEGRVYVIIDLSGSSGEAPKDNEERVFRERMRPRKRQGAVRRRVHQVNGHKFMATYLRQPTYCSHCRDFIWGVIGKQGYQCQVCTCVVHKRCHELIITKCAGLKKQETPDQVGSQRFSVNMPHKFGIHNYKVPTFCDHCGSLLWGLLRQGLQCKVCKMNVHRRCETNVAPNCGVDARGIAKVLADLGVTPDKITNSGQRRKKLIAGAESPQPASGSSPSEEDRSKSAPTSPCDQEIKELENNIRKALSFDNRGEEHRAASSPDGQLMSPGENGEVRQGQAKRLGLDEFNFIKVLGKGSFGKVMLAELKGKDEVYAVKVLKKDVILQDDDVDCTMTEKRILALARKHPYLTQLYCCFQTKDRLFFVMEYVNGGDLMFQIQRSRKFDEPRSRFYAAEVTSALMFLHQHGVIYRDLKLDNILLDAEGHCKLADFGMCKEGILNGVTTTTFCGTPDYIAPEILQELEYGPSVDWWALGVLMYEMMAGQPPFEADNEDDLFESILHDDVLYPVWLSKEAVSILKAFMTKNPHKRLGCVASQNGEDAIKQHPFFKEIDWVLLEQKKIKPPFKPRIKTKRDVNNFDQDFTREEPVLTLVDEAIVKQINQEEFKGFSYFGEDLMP
Sequence of ACVR1B (P36896 24-505): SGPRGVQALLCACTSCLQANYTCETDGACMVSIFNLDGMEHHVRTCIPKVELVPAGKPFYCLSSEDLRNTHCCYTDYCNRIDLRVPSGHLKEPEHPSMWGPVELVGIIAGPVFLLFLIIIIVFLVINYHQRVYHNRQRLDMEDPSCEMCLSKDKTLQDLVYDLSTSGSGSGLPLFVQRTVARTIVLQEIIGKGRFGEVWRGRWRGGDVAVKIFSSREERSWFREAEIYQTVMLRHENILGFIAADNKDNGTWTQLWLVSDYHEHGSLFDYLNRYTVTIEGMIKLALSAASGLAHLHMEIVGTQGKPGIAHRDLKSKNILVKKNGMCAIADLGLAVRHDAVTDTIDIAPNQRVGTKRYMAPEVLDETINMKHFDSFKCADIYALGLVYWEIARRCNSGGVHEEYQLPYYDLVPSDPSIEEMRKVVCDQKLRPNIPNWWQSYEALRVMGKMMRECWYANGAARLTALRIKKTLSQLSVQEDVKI
Sequence of PAK4 (O96013 whole entry): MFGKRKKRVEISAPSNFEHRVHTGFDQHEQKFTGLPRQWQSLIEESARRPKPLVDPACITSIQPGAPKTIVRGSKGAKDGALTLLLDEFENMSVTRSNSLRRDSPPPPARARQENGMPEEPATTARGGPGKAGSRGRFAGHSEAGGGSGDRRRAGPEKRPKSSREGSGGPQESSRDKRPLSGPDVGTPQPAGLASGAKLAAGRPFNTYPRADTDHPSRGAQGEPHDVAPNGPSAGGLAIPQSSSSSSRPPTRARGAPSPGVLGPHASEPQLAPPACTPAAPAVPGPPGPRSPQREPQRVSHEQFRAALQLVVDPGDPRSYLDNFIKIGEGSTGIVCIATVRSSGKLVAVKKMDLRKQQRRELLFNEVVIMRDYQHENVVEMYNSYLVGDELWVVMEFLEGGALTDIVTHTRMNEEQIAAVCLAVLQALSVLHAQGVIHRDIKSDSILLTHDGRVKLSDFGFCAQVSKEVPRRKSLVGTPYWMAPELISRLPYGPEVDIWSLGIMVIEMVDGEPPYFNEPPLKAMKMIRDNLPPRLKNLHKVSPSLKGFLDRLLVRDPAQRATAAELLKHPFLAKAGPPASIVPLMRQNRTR
Sequence of CAMK1G (Q96NX5 whole entry): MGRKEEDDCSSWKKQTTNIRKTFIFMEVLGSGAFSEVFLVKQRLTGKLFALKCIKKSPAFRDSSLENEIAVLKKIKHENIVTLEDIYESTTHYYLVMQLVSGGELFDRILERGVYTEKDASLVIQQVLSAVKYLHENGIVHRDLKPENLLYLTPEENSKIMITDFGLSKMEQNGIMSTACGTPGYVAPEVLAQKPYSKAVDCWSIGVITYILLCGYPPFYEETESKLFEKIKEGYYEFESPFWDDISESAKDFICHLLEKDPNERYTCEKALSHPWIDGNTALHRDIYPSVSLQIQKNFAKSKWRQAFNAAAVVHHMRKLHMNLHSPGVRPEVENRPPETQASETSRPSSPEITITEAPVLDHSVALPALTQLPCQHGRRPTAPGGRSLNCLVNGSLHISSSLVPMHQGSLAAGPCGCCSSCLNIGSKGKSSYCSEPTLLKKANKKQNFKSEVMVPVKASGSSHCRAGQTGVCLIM
Sequence of SRPK2 (P78362 whole entry): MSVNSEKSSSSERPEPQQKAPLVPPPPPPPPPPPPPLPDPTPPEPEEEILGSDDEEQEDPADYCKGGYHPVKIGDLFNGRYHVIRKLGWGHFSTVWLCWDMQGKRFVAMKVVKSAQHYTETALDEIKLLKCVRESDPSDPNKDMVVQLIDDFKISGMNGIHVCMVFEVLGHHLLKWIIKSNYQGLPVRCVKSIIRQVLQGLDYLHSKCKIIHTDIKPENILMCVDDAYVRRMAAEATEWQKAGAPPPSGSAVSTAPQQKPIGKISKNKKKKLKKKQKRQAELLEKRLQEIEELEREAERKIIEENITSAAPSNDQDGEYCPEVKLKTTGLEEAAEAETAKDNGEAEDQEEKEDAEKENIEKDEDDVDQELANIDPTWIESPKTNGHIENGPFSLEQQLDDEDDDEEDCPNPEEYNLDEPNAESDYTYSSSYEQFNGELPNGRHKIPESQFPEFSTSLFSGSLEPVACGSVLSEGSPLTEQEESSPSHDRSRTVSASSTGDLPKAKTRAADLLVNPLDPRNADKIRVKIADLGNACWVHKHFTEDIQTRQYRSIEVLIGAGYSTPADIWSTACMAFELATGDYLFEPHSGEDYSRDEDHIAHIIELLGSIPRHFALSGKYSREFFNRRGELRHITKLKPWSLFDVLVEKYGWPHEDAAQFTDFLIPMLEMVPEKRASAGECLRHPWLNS

CC(C)COC(=O)c1[nH]c2ccc(F)cc2c1-c1cn(CC2CCN(CCNS(=O)(=O)c3ccc(CC(C)C)cc3)CC2)nn1 [AB668, isobutyl 5-fluoro-3-(1-((1-(2-((4-isobutylphenyl)sulfonamido)ethyl)piperidin-4-yl)methyl)-1H-1,2,3-triazol-4-yl)-1H-indole-2-carboxylate]
efficacy on the catalytic activity of CK2α and CK2α′ (CK2α′): very similar efficacy | remaining activity at 2 µM [1]: 96% | remaining activity at 2 µM [2]: 88% | remaining activity at 2 µM [3]: 97% | remaining activity at 2 µM (ACVR1B): 75% | remaining activity at 2 µM (AKT2): 97% | remaining activity at 2 µM (AMPK-alpha1): 99% | remaining activity at 2 µM (BRSK1): 78% | remaining activity at 2 µM (CAMK1G): 80% | remaining activity at 2 µM (CAMK2B): 96% | remaining activity at 2 µM (CAMK4): 100% | remaining activity at 2 µM (CHEK2): 100% | remaining activity at 2 µM (DAPK1): 100% | remaining activity at 2 µM (FLT3(D835V)): 94% | remaining activity at 2 µM (FYN): 64% | remaining activity at 2 µM (GAK): 99% | remaining activity at 2 µM (HUNK): 88% | remaining activity at 2 µM (KIT(L576P)): 91% | remaining activity at 2 µM (KIT(V559D,V654A)): 100% | remaining activity at 2 µM (KIT-autoinhibited): 96% | remaining activity at 2 µM (MAP3K1): 91% | remaining activity at 2 µM (MAP4K2): 100% | remaining activity at 2 µM (MARK1): 79% | remaining activity at 2 µM (MST4): 92% | remaining activity at 2 µM (MYLK2): 96% | remaining activity at 2 µM (MYO3B): 100% | remaining activity at 2 µM (NEK4): 86% | remaining activity at 2 µM (p38-beta): 74% | remaining activity at 2 µM (PAK4): 95% | remaining activity at 2 µM (PFTAIRE2): 88% | remaining activity at 2 µM (PIK3C2G): 100% | remaining activity at 2 µM (PIK3CA(H1047L)): 98% | remaining activity at 2 µM (PIK3CA(M1043I)): 100% | remaining activity at 2 µM (PRKCE): 98% | remaining activity at 2 µM (QSK): 85% | remaining activity at 2 µM (SIK): 97% | remaining activity at 2 µM (SLK): 100% | remaining activity at 2 µM (SRPK2): 98% | remaining activity at 2 µM [4]: 85% | remaining activity at 2 µM (ULK3): 82% | remaining activity at 2 µM (VPS34): 100% | remaining activity at 2 µM (WEE2): 95%
